Where two headings read alike, the source gives them in different places.
Assay: Ocular tissue concentrations (aqueous humor, vitreous humor, iris, retina, choroid, cornea) after topical ocular, subcutaneous and intravitreal administration
Format: in vivo, New Zealand White rabbits
Conditions: for Cornea Conc. (ng/mL) OS: Cornea homogenate; for Cornea Conc. (ng/mL) OS / concentration at 0.5 h / concentration at 1 h / concentration at 2 h / concentration at 4 h: subcutaneous 5 mg/kg/dose; for concentration at 6 hr / concentration at 24 hr / concentration at 48 hr / concentration at 72 hr / concentration at 0.5 h / concentration at 1 h / concentration at 2 h / concentration at 4 h: New Zealand White, rabbit; for concentration at 6 hr / concentration at 24 hr / concentration at 48 hr / concentration at 72 hr: other: intravitreal, 2.5 mg/eye; for concentration at 0.5 h / concentration at 1 h / concentration at 2 h / concentration at 4 h: subcutaneous, 5 mg/kg/dose
Method: To measure the concentration of Compound 1 in plasma and ocular tissues following topical ocular, subcutaneous, and intravitreal administration, New Zealand White rabbits were administered Compound 1, and plasma and ocular samples were collected at pre-determined time points. Compound 1 formulations were prepared fresh on each day of dosing.
Ocular tissue samples from both eyes of each animal were collected and weights were recorded. Plasma and ocular tissue sample concentrations of Compound 1 were determined by LC-MS/MS.
New Zealand White rabbits weighing 2.5 to 3.5 kg were used on this study. Rabbits were housed one per cage. Animals were not fasted and only healthy animals with no ocular illness were used. Two rabbits per group were sacrificed at each of four ocular tissue sampling time points for a total of eight rabbits per group.
Animals were anesthetized for ocular (topical) and intravitreal dosing following the 12IA7 IACUC protocol. Each rabbit received a bolus dose of test formulation either via topical ocular administration 3 times daily on Days 1 and 2 (at 0, 6, and 12 hours), and once on Day 3 (at 0 hours) into both eyes; via intravitreal administration into both eyes once on Day 1 (at 0 hours); or via subcutaneous administration 2 times daily on Days 1 and 2 (at 0 and 8 hours) and once daily on Day 3 (at 0 hours). Doses were given within an approximately 1 hour window each day where applicable.
On Day 1, for intravitreal administration, or on Day 3, for topical ocular and subcutaneous administration, at the appropriate ocular tissue collection time points, animals were euthanized and both eyes were enucleated immediately. Following enucleation, each eye was rinsed with phosphate-buffered saline. Ocular tissue samples from both eyes of each animal were collected at predetermined time points and weights were recorded. All the samples were frozen immediately on dry ice, and stored at −60° C. to −80° C. pending bioanalysis.
An LC-MS/MS method was developed for the determination of Compound 1 in rabbit aqueous tissues (plasma, aqueous and vitreous humor) and solid ocular tissue samples. A pre-study standard curve was analyzed to determine the specificity, range, and lower limit of quantitation of the method. Plasma and tissue homogenate study samples were extracted and analyzed. All the samples were treated identically to the standards.
One eight-point standard curve was used in each analytical batch. To be accepted, each batch must have had at least five of eight standards with accuracy within ±20% of nominal, except at the lower limit of quantification (LLOQ), where ±25% was acceptable.
Concentration versus time data is plotted in FIGS. 3-16. All data are expressed as ng/g of the free drug. Samples that were below the limit of quantitation (0.2 ng/mL) were not used in the calculation of averages.

[1] = choroid homogenate, Choroid homogenate, left eye, intravitreal 2.5 mg/eye (group 5), individual animals, read-out: Conc. (ng/mL) OS
[2] = choroid homogenate, Choroid homogenate, OD, sodium salt, intravitreal 2.5 mg/eye, Group 4, read-out: Choroid Conc. (ng/mL) OD
[3] = choroid homogenate, Choroid homogenate, OS, sodium salt, intravitreal 2.5 mg/eye, Group 4, read-out: Choroid Conc. (ng/mL) OS
[4] = choroid homogenate, Choroid homogenate, right eye, intravitreal 2.5 mg/eye (group 5), individual animals, read-out: Conc. (ng/mL) OD
[5] = choroid homogenate, Choroid homogenate, OD, sodium salt, Group 2, read-out: Choroid Conc. (ng/mL) OD
[6] = choroid homogenate, Choroid homogenate, OS, sodium salt, Group 2, read-out: Choroid Conc. (ng/mL) OS
[7] = choroid, Choroid, OD, sodium salt, intravitreal 2.5 mg/eye, Group 4, read-out: Choroid Conc. (ng/g) OD
[8] = choroid, Choroid, OS, sodium salt, intravitreal 2.5 mg/eye, Group 4, read-out: Choroid Conc. (ng/g) OS
[9] = choroid, Choroid, average, intravitreal 2.5 mg/eye (group 5), read-out: Avg.
[10] = choroid, Choroid, left eye, intravitreal 2.5 mg/eye (group 5), individual animals, read-out: Conc. (ng/g) OS
[11] = choroid, Choroid, sodium salt, intravitreal 2.5 mg/eye, Group 4, read-out: Choroid Avg.
[12] = choroid, Choroid, right eye, intravitreal 2.5 mg/eye (group 5), individual animals, read-out: Conc. (ng/g) OD
[13] = choroid, Choroid, OD, sodium salt, Group 2, read-out: Choroid Conc. (ng/g) OD
[14] = choroid, Choroid, OS, sodium salt, Group 2, read-out: Choroid Conc. (ng/g) OS
[15] = choroid, Choroid, free acid, Group 3, read-out: Choroid Average
[16] = choroid, Choroid, sodium salt, Group 2, read-out: Choroid Average

concentration at 6 hr [1]: 63400 ng/mL | concentration at 24 hr [2]: 11800 ng/mL | concentration at 24 hr [3]: 9890 ng/mL | concentration at 24 hr [1]: 28400 ng/mL | concentration at 48 hr [2]: 3480 ng/mL | concentration at 48 hr [3]: 3740 ng/mL | concentration at 48 hr [1]: 9320 ng/mL | concentration at 48 hr [4]: 9940 ng/mL | concentration at 72 hr [3]: 282 ng/mL | concentration at 72 hr [1]: 2660 ng/mL | concentration at 72 hr [4]: 2180 ng/mL | concentration at 0.5 h [5]: 24 ng/mL | concentration at 0.5 h (choroid homogenate, Choroid homogenate, OS, free acid, Group 3, read-out: Choroid Conc. (ng/mL) OS): 7.55 ng/mL | concentration at 0.5 h [6]: 25.6 ng/mL | concentration at 1 h (choroid homogenate, Choroid homogenate, 1 hr, OD, free acid, Group 3, read-out: Choroid Conc. (ng/mL) OD): 6.04 ng/mL | concentration at 1 h (choroid homogenate, Choroid homogenate, 1 hr, OD, sodium salt, Group 2, read-out: Choroid Conc. (ng/mL) OD): 29.1 ng/mL | concentration at 1 h (choroid homogenate, Choroid homogenate, 1 hr, OS, free acid, Group 3, read-out: Choroid Conc. (ng/mL) OS): 8.01 ng/mL | concentration at 1 h (choroid homogenate, Choroid homogenate, 1 hr, OS, sodium salt, Group 2, read-out: Choroid Conc. (ng/mL) OS): 13.1 ng/mL | concentration at 2 h (choroid homogenate, Choroid homogenate, 2 hr, OD, free acid, Group 3, read-out: Choroid Conc. (ng/mL) OD): 3.32 ng/mL | concentration at 2 h (choroid homogenate, Choroid homogenate, 2 hr, OS, free acid, Group 3, read-out: Choroid Conc. (ng/mL) OS): 4.84 ng/mL | concentration at 4 h (choroid homogenate, Choroid homogenate, OD, free acid, Group 3, read-out: Choroid Conc. (ng/mL) OD): 4.82 ng/mL | concentration at 4 h [5]: 1.7 ng/mL | concentration at 4 h [6]: 1.22 ng/mL | concentration at 0.5 h (choroid homogenate, TABLE 16: Choroid homogenate, OS, free acid, Group 3, read-out: Choroid Conc. (ng/mL) OS): 7.55 ng/mL | concentration at 1 h (choroid homogenate, TABLE 16: Choroid homogenate, 1 hr, OD, free acid, Group 3, read-out: Choroid Conc. (ng/mL) OD): 6.04 ng/mL | concentration at 1 h (choroid homogenate, TABLE 16: Choroid homogenate, 1 hr, OS, free acid, Group 3, read-out: Choroid Conc. (ng/mL) OS): 8.01 ng/mL | concentration at 2 h (choroid homogenate, TABLE 16: Choroid homogenate, 2 hr, OD, free acid, Group 3, read-out: Choroid Conc. (ng/mL) OD): 3.32 ng/mL | concentration at 2 h (choroid homogenate, TABLE 16: Choroid homogenate, 2 hr, OS, free acid, Group 3, read-out: Choroid Conc. (ng/mL) OS): 4.84 ng/mL | concentration at 4 h (choroid homogenate, TABLE 16: Choroid homogenate, OD, free acid, Group 3, read-out: Choroid Conc. (ng/mL) OD): 4.82 ng/mL | concentration at 6 hr [7]: 346000 ng/g | concentration at 6 hr [8]: 484000 ng/g | concentration at 6 hr [9]: 664000 ng/g | concentration at 6 hr [10]: 697000 ng/g | concentration at 6 hr [11]: 947000 ng/g | concentration at 24 hr [7]: 130000 ng/g | concentration at 24 hr [8]: 109000 ng/g | concentration at 24 hr [9]: 398000 ng/g | concentration at 24 hr [10]: 312000 ng/g | concentration at 24 hr [11]: 139000 ng/g | concentration at 48 hr [7]: 38300 ng/g | concentration at 48 hr [8]: 41100 ng/g | concentration at 48 hr [9]: 120000 ng/g | concentration at 48 hr [10]: 103000 ng/g | concentration at 48 hr [12]: 109000 ng/g | concentration at 48 hr [11]: 38600 ng/g | concentration at 72 hr [8]: 3100 ng/g | concentration at 72 hr [9]: 27600 ng/g | concentration at 72 hr [10]: 29300 ng/g | concentration at 72 hr [12]: 24000 ng/g | concentration at 72 hr [11]: 2720 ng/g | concentration at 0.5 h [13]: 264 ng/g | concentration at 0.5 h (choroid, Choroid, OS, free acid, Group 3, read-out: Choroid Conc. (ng/g) OS): 83.1 ng/g | concentration at 0.5 h [14]: 282 ng/g | concentration at 0.5 h [15]: 127 ng/g | concentration at 0.5 h [16]: 266 ng/g | concentration at 1 h (choroid, Choroid, 1 hr, OD, free acid, Group 3, read-out: Choroid Conc. (ng/g) OD): 66.4 ng/g | concentration at 1 h (choroid, Choroid, 1 hr, OD, sodium salt, Group 2, read-out: Choroid Conc. (ng/g) OD): 320 ng/g | concentration at 1 h (choroid, Choroid, 1 hr, OS, free acid, Group 3, read-out: Choroid Conc. (ng/g) OS): 88.1 ng/g | concentration at 1 h (choroid, Choroid, 1 hr, OS, sodium salt, Group 2, read-out: Choroid Conc. (ng/g) OS): 144 ng/g | concentration at 1 h (choroid, Choroid, 1 hr, free acid, Group 3, read-out: Choroid Average): 83.3 ng/g | concentration at 1 h (choroid, Choroid, 1 hr, sodium salt, Group 2, read-out: Choroid Average): 200 ng/g | concentration at 2 h (choroid, Choroid, 2 hr, OD, free acid, Group 3, read-out: Choroid Conc. (ng/g) OD): 36.5 ng/g | concentration at 2 h (choroid, Choroid, 2 hr, OS, free acid, Group 3, read-out: Choroid Conc. (ng/g) OS): 53.2 ng/g | concentration at 2 h (choroid, Choroid, 2 hr, free acid, Group 3, read-out: Choroid Average): 47.7 ng/g | concentration at 2 h (choroid, Choroid, 2 hr, sodium salt, Group 2, read-out: Choroid Average): 68.8 ng/g | concentration at 4 h (choroid, Choroid, OD, free acid, Group 3, read-out: Choroid Conc. (ng/g) OD): 53 ng/g | concentration at 4 h [13]: 18.7 ng/g | concentration at 4 h [14]: 13.4 ng/g | concentration at 4 h [15]: 61 ng/g | concentration at 4 h [16]: 15.5 ng/g | concentration at 0.5 h (choroid, TABLE 16: Choroid, OS, free acid, Group 3, read-out: Choroid Conc. (ng/g) OS): 83.1 ng/g | concentration at 0.5 h (choroid, TABLE 16: Choroid, free acid, Group 3, read-out: Choroid Average): 127 ng/g | concentration at 1 h (choroid, TABLE 16: Choroid, 1 hr, OD, free acid, Group 3, read-out: Choroid Conc. (ng/g) OD): 66.4 ng/g | concentration at 1 h (choroid, TABLE 16: Choroid, 1 hr, OS, free acid, Group 3, read-out: Choroid Conc. (ng/g) OS): 88.1 ng/g | concentration at 1 h (choroid, TABLE 16: Choroid, 1 hr, free acid, Group 3, read-out: Choroid Average): 83.3 ng/g | concentration at 2 h (choroid, TABLE 16: Choroid, 2 hr, OD, free acid, Group 3, read-out: Choroid Conc. (ng/g) OD): 36.5 ng/g
Compound: COC(=O)N[C@@H](Cc1ccccc1)C(=O)N[C@@H](Cc1ccc(NS(=O)(=O)O)cc1)c1csc(-c2cccs2)n1 [Compound 1]
Cornea Conc. (ng/mL) OS (1 hr, OS, free acid, Group 3): BLOQ (Below the limit of quantitation (0.5 ng/mL)) | Cornea Conc. (ng/mL) OS (2 hr, OS, free acid, Group 3): BLOQ (Below the limit of quantitation (0.5 ng/mL))

— patent publication US11666558B2, “Methods of treating intraocular pressure with activators of Tie-2” (EyePoint Pharmaceuticals, Inc., priority 2015, dated 2023)
